Some results are limits rather than exact numbers.

As a reminder, the IC50 is the concentration at which inhibition is half-maximal. Higher therefore signals weaker potency. What is called bioavailability is dose-corrected exposure relative to a reference, in per cent. A word on the Ki: it is a measure of affinity in units of concentration, obtained from inhibition or displacement. A word on the solubility: it is how much of the substance goes into solution per volume. Low readings indicate little dissolved substance, high ones much dissolved substance.

The target in series [1] is T1, human TRPV4 (Homo sapiens (Human), UniProt Q9HBA0). Description: Test Example 2: measurement of TRPV4 inhibitory activity (Fluo 3-AM, FLIPR, 4α-PDD 600 nmol/L). The settings on record: hTRPV4/CHO cells. Format: cell-based.
T1 sequence (Q9HBA0 whole entry): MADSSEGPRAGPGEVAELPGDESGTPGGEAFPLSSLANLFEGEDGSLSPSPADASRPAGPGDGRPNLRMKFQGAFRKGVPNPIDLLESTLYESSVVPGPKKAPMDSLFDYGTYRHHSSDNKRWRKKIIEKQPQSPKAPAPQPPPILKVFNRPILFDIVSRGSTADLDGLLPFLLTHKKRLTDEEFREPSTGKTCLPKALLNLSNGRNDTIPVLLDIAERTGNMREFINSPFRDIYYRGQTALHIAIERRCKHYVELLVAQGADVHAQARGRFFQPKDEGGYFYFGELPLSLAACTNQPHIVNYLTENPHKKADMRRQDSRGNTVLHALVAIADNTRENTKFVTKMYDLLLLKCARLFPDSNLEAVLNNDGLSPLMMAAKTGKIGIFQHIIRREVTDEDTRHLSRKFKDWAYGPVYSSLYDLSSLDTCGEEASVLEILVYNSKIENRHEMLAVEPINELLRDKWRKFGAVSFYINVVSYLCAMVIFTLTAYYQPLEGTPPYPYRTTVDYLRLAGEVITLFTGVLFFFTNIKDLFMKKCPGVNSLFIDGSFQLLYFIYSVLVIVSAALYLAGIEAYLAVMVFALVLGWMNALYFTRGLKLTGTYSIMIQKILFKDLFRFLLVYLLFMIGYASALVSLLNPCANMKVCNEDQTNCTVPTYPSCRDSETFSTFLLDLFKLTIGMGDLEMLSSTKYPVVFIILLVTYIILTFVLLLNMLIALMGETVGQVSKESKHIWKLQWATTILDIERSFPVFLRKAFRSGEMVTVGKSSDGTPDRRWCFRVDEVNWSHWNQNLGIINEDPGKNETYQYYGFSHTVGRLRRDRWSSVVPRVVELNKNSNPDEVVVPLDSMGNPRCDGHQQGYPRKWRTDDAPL
Protocol: For each compound, TRPV4 inhibitory activity was measured using cells.
(1) The TRPV4 inhibitory activity was measured using CHO-K1 cells stably expressing human TRPV4 (hTRPV4/CHO cells).
(2) In the day before the experimental day, frozen cell were thawed and washed with the culture medium (MEM-α, 10% FBS, 4 mmol/L L-Glutamine, 50 unit Penicillin, 50 μg/mL Streptomycin). Then cells were suspended in the culture medium.
(3) The 384-well plates which hTRPV4/CHO cells were seeded at densities of 4000 cells/well in the culture medium and cultured in a CO2 incubator in the presence of 5% CO2 at 37° C. for overnight was used as assay plates. […]
(7) Diluted compound solution was dispensed to each well in the compound plate, and mixed with built-in Pipette and Mixer of the Fluorescence analysis system FLIPR 384 (Molecular devices). […]
(9) The fluorescent intensity was measured with FLIPR TETRA system for 7 min from the point of time addition the compound solution, at Ex 488 nm, Em 510-570 nm wavelength.
TRPV4 inhibitory activity (IC50 value) of a compound was evaluated according to the following procedure.
(10) In the presence of the compound, the difference between maximal and minimal of fluorescent intensity value for 3 min from just before addition of 4α-PDD solution was calculated, and it was referred as Max-Min value. […]
For series [2], the target named is T1, human TRPV4. Briefly: Test Example 1: measurement of TRPV4 inhibitory activity (Fluo 4-AM, FLIPR TETRA, 4α-PDD 1 μmol/L). Format: cell-based. The settings on record: hTRPV4/CHO cells, 4α-PDD 1 μmol/L. The gist of the method: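 CHO-K1 cells stably expressing human TRPV4, Fluo-4-loaded, pre-incubated 5 min with compound (10 points, 3-fold, 10 μmol/L to 0.5 nmol/L) before 1 μmol/L 4α-PDD; FLIPR max-min fluorescence over 5 min, normalised to 20 μM Ruthenium Red. IC50 by logistic fit; Ki from IC50 using 4α-PDD EC50.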

Series [3] in a line: BA test (oral absorbability). Format: in vivo. The settings on record: plasma; Mouse, oral administration 1 mg/kg. How it is done:
An experimental material and a method for examining oral absorbability
(1) Animals used rats or mice were used.
(2) Breeding condition: chow and sterilized tap water were allowed to be taken in freely.
(3) Setting of a dosage and grouping: a predetermined dosage was administered orally or intravenously. Groups were formed as shown below. (A dosage varied depending on each compound) Oral administration 1-30 mg/kg (n=2 to 3) Intravenous administration 0.5-10 mg/kg (n=2 to 3) (4) Preparation of administered liquid: In oral administration, a solution or suspension was administered. In intravenous administration, after solubilization, the administration was performed. (5) Method of Administration: In oral administration, compulsory administration to the stomach was conducted using an oral probe.
In intravenous administration, administration from the caudal vein was conducted using a syringe with an injection needle.
(6) Evaluation item: Blood was chronologically collected, and then the drug concentration in blood plasma was measured using a LC/MS/MS.
(7) Statistical analysis: With regard to a shift in plasma concentration, the plasma concentration-time area under the curve (AUC) was calculated using a nonlinear least-squares program WinNonlin®. Bioavailability (BA) was calculated from the AUCs of the oral administration group and the intravenous administration group, respectively. […]

In series [4] the target is T1, human TRPV4. Description: Test Example 3: measurement of TRPV4 inhibitory activity (Fluo-3, FDSS 3000, 4α-PDD). The series is classed as cell-based. The following applies: hTRPV4/CHO cells, calculated from IC50 and 4α-PDD EC50. The gist of the method:
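Fluo-3-loaded CHO-K1 cells stably expressing TRPV4 in HEPES/probenecid Hanks buffer pH 7.4; compound added, then 4α-PDD, Ca2+ fluorescence (Ex 480/Em 540 nm) read 8 min. Max-Min normalized to 10 μM Ruthenium Red (100%) and vehicle; IC50 from 10-point 3-fold series converted to Ki using 4α-PDD EC50 and concentration.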

A short description of a further series: Solubility test. Format: physicochemical. The following applies: artificial intestinal juice (phosphate buffer) with 1% DMSO, fassgf or other biorelevant, kinetic from dmso stock, artificial intestinal juice pH 6.8, 16 hours at 25° C. The method, then: The solubility of each compound is determined under 1% DMSO addition conditions. A 10 mmol/L solution of the compound is prepared with DMSO, and 6 μL of the compound solution is added to 594 μL of an artificial intestinal juice (water and 118 mL of 0.2 mol/L NaOH reagent are added to 250 mL of 0.2 mol/L potassium dihydrogen phosphate reagent to reach 1000 mL) with a pH of 6.8. The mixture is left standing for 16 hours at 25° C., and the mixture is vacuum-filtered. The filtrate is two-fold diluted with methanol/water=1/1, and the compound concentration in the filtrate is measured with HPLC or LC/MS/MS by the absolute calibration method.

Series [5] is described as follows: Metabolism stability test. The series is classed as in vitro ADME. The settings on record: human liver microsomes, 30 minutes. How it is done:
Using a commercially available pooled human hepatic microsomes, a test compound was reacted for a constant time, a remaining rate was calculated by comparing a reacted sample and an unreacted sample, thereby, a degree of metabolism in liver was assessed.
A reaction was performed (oxidative reaction) at 37° C. for 0 minute or 30 minutes in the presence of 1 mmol/L NADPH in 0.2 mL of a buffer (50 mmol/L Tris-HCl pH 7.4, 150 mmol/L potassium chloride, 10 mmol/L magnesium chloride) containing 0.5 mg protein/mL of human liver microsomes. After the reaction, 50 μL of the reaction mixture was added to 100 μL of a methanol/acetonitrile=1/1 (v/v), mixed and centrifuged at 3000 rpm for 15 minutes. The test compound in the supernatant was quantified by LC/MS/MS, and a remaining amount of the test compound after the reaction was calculated, letting a compound amount at 0 minute reaction time to be 100%. Hydrolysis reaction was performed in the absence of NADPH and glucuronidation reaction was in the presence of 5 mM UDP-glucuronic acid in place of NADPH, followed by similar operations.

Series [6] deals with human ether-a-go-go related gene (hERG) channel (Homo sapiens (Human), UniProt Q12809). Briefly: hERG test (whole cell patch clamp, IKr). The settings on record: 1 μmol/L of test compound, HEK293 cells expressing hERG. The series is classed as cell-based. An excerpt:
For the purpose of assessing risk of an electrocardiogram QT interval prolongation, effects on delayed rectifier K^+ current (IKr), which plays an important role in the ventricular repolarization process, was studied using HEK293 cells expressing human ether-a-go-go related gene (hERG) channel.
After a cell was retained at a membrane potential of −80 mV by whole cell patch clamp method using an automated patch clamp system (PatchXpress 7000A, Axon Instruments Inc.), IKr induced by depolarization pulse stimulation at +40 mV for 2 seconds and, further, repolarization pulse stimulation at −50 mV for 2 seconds was recorded. […] From the recording IKr, an absolute value of the tail peak current was measured based on the current value at the resting membrane potential using an analysis software (DataXpress ver. 1, Molecular Devices Corporation). Further, the % inhibition relative to the tail peak current before application of the test substance was calculated, and compared with the vehicle-applied group (0.1% dimethyl sulfoxide solution) to assess influence of the test substance on IKr.

Chain of human ether-a-go-go related gene (hERG) channel (Q12809 whole entry): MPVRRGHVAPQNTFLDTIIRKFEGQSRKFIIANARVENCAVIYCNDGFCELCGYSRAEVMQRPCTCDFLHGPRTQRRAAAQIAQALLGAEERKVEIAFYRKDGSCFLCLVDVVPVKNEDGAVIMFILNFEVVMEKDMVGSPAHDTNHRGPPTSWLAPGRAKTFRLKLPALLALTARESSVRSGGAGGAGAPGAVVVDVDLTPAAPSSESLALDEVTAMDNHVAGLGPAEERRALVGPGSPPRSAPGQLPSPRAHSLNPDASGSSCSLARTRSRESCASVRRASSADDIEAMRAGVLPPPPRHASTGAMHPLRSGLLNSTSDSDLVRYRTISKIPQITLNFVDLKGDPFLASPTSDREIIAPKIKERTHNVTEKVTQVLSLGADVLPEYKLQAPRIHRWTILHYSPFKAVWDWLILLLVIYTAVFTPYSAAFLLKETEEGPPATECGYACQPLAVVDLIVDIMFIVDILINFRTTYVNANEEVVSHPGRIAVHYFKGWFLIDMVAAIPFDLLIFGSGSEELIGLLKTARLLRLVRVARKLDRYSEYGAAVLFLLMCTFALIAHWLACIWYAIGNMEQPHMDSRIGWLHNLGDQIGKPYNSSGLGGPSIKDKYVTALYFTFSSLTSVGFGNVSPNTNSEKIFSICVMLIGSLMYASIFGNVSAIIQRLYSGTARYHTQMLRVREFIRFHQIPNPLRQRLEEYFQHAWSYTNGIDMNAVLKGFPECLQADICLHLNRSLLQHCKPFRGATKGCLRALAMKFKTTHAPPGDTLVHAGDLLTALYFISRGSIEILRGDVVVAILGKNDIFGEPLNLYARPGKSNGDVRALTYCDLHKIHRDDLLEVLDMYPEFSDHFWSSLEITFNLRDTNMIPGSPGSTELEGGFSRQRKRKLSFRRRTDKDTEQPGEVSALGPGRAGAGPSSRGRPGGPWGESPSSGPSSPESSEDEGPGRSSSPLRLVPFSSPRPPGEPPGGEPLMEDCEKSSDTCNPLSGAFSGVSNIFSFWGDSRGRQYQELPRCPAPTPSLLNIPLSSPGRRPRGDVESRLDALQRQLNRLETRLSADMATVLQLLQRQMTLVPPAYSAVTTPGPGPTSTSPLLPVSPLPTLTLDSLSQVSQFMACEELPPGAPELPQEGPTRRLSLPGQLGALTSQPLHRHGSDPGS

For `Cc1c(C(=O)Nc2cccc(C(F)(F)F)c2)cc(-c2ccccc2)n1CCSCc1c(F)cccc1Cl` [Compound I-084], the IC50 was found to be 1600 nM against human TRPV4 [1] and 1200 nM against human TRPV4 [2].

Consider `Cc1c(C(=O)Nc2cccc(C(F)(F)F)c2)cc(-c2ccccc2)n1CCCN1CCNCC1` [Compound I-014], for which the bioavailability in series [3] was determined as 15.2%. Moreover, at human TRPV4 [4], the Ki was 355 nM. Further, the solubility at 16 h in “Solubility test” was over 50 µM. Further, the “remaining rate (metabolism stability)” value in series [5] (compound concentration 2 μmol/L) came out at 66.3%.

As to `CNCCCn1c(-c2ccccc2)cc(C(=O)Nc2cccc(C(F)(F)F)c2)c1C` [Compound I-031], the bioavailability in series [3] was found to be 24.4%. For the same molecule, the Ki on human TRPV4 [4] was 160 nM. For the same molecule, the solubility at 16 h in the series “Solubility test” was over 50 µM. In series [5] (compound concentration 0.5 μmol/L), the “remaining rate (metabolism stability)” value is given as 92.2%.

Regarding `Cc1c(NC(=O)c2cccc(C(F)(F)F)c2)cc(-c2ccccc2)n1CCCN1CCOCC1` [Compound I-082], at human TRPV4 [4], the Ki is 1440 nM. The molecule further came in with a solubility at 16 h in the series “Solubility test” of over 50 µM. For the same molecule, in series [6], the hERG % inhibition came out at 13.5%.
